Test results from ChEMBL document CHEMBL1201862, “PubChem BioAssay data set” (2004).
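Assay format: 96-well plates, 48-hour exposure. At the GI50, growth is halved.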 Calls of active or inactive are those of the source. Rule as the data show it: active = GI50 up to about 1.1 µM and inactive = higher.

Experiments:
Test in all cases: DTP human tumour cell line panel, 48 h
HT-29 = tested on: HT-29
MOLT-4 = tested on: MOLT-4
CCRF-CEM = tested on: CCRF-CEM
TK-10 = tested on: TK-10
MDA-N = tested on: MDA-N
NCI-H522 = tested on: NCI-H522
HL-60 = tested on: HL-60
UACC-257 = tested on: UACC-257
MDA-MB-231 = tested on: MDA-MB-231
LOX IMVI = tested on: LOX IMVI
NCI-H23 = tested on: NCI-H23
SF-268 = tested on: SF-268
MCF7 = tested on: MCF7
HCT-116 = tested on: HCT-116
A498 = tested on: A498
A549 = tested on: A549
HCT-15 = tested on: HCT-15
Hs-578T = tested on: Hs-578T
IGROV-1 = tested on: IGROV-1
SN12C = tested on: SN12C
SF-539 = tested on: SF-539
NCI/ADR-RES = tested on: NCI/ADR-RES
K562 = tested on: K562
PC-3 = tested on: PC-3
M14 = tested on: M14
SNB-75 = tested on: SNB-75
EKVX = tested on: EKVX
OVCAR-8 = tested on: OVCAR-8
U-251 = tested on: U-251
MDA-MB-435 = tested on: MDA-MB-435
Malme-3M = tested on: Malme-3M
OVCAR-4 = tested on: OVCAR-4
SR = tested on: SR
SK-MEL-28 = tested on: SK-MEL-28
SNB-19 = tested on: SNB-19
UACC-62 = tested on: UACC-62
NCI-H460 = tested on: NCI-H460
HOP-62 = tested on: HOP-62
CAKI-1 = tested on: CAKI-1
SK-MEL-5 = tested on: SK-MEL-5
RXF 393 = tested on: RXF 393
OVCAR-5 = tested on: OVCAR-5
KM12 = tested on: KM12
ACHN = tested on: ACHN
SW-620 = tested on: SW-620
SK-MEL-2 = tested on: SK-MEL-2
786-0 = tested on: 786-0
NCI-H226 = tested on: NCI-H226
BT-549 = tested on: BT-549
HOP-92 = tested on: HOP-92
SF-295 = tested on: SF-295
DU-145 = tested on: DU-145
COLO 205 = tested on: COLO 205
HCC 2998 = tested on: HCC 2998
UO-31 = tested on: UO-31
T47D = tested on: T47D
OVCAR-3 = tested on: OVCAR-3
SK-OV-3 = tested on: SK-OV-3
RPMI-8226 = tested on: RPMI-8226

## Cc1ccc2nc(/C=N/c3ccccc3Cl)cc(C)c2c1
HT-29
  GI50: 18.4 µM (inactive)
MOLT-4
  GI50: 5.79 µM (inactive)
CCRF-CEM
  GI50: 4.89 µM (inactive)
TK-10
  GI50: 30.3 µM (inactive)
MDA-N
  GI50: 5.57 µM (inactive)
NCI-H522
  GI50: 20 µM (inactive)
HL-60
  GI50: 2.73 µM (inactive)
UACC-257
  GI50: 15.8 µM (inactive)
MDA-MB-231
  GI50: 13.2 µM (inactive)
LOX IMVI
  GI50: 8.61 µM (inactive)
NCI-H23
  GI50: 22.2 µM (inactive)
SF-268
  GI50: 16 µM (inactive)
MCF7
  GI50: 17.5 µM (inactive)
HCT-116
  GI50: 4.21 µM (inactive)
A498
  GI50: > 100 µM (inactive)
A549
  GI50: > 100 µM (inactive)
HCT-15
  GI50: 18.4 µM
Hs-578T
  GI50: 25.5 µM (inactive)
IGROV-1
  GI50: 18.9 µM (inactive)
SN12C
  GI50: 12.2 µM (inactive)
SF-539
  GI50: 16.5 µM (inactive)
NCI/ADR-RES
  GI50: 16.8 µM (inactive)
K562
  GI50: 19.1 µM (inactive)
PC-3
  GI50: 25.4 µM (inactive)
M14
  GI50: 13.2 µM (inactive)
SNB-75
  GI50: 19.9 µM (inactive)
EKVX
  GI50: 20.4 µM (inactive)
OVCAR-8
  GI50: 15.2 µM (inactive)
U-251
  GI50: 20.7 µM (inactive)
MDA-MB-435
  GI50: 12.7 µM (inactive)
Malme-3M
  GI50: 20.8 µM (inactive)
OVCAR-4
  GI50: 34 µM (inactive)
SR
  GI50: 2.81 µM (inactive)
SK-MEL-28
  GI50: 18.9 µM (inactive)
SNB-19
  GI50: 30.2 µM (inactive)
UACC-62
  GI50: 14.6 µM (inactive)
NCI-H460
  GI50: 17.2 µM (inactive)
HOP-62
  GI50: 38.8 µM (inactive)
CAKI-1
  GI50: 30.8 µM (inactive)
SK-MEL-5
  GI50: 14.9 µM (inactive)
RXF 393
  GI50: 14.5 µM (inactive)
OVCAR-5
  GI50: 42.3 µM (inactive)
KM12
  GI50: 17.4 µM (inactive)
ACHN
  GI50: 30.7 µM (inactive)
SW-620
  GI50: 13.1 µM (inactive)
SK-MEL-2
  GI50: 40.2 µM (inactive)
786-0
  GI50: 16.7 µM (inactive)
NCI-H226
  GI50: 20.6 µM (inactive)
BT-549
  GI50: 16.1 µM (inactive)
HOP-92
  GI50: 25.4 µM (inactive)
SF-295
  GI50: 21.9 µM (inactive)
DU-145
  GI50: 46.7 µM (inactive)
COLO 205
  GI50: 50.8 µM (inactive)
HCC 2998
  GI50: 47.3 µM (inactive)
UO-31
  GI50: 16.5 µM (inactive)
T47D
  GI50: 22.4 µM (inactive)
OVCAR-3
  GI50: 17.5 µM (inactive)
SK-OV-3
  GI50: 27.4 µM (inactive)
RPMI-8226
  GI50: 8.75 µM (inactive)

## C=C1C(=O)OC2/C=C(\C)CC/C=C(\C)CC(OC(=O)/C(=C/CO)CO)[C@@H]12 (some centres not stated)
HT-29
  GI50: 7.41 µM (inactive)
MOLT-4
  GI50: 2.14 µM (inactive)
CCRF-CEM
  GI50: 2.09 µM (inactive)
TK-10
  GI50: 5.51 µM (inactive)
MDA-N
  GI50: 5.45 µM (inactive)
NCI-H522
  GI50: 1.75 µM (inactive)
HL-60
  GI50: 2.72 µM (inactive)
UACC-257
  GI50: 7.85 µM (inactive)
MDA-MB-231
  GI50: 13.7 µM (inactive)
LOX IMVI
  GI50: 16 µM (inactive)
NCI-H23
  GI50: 13.7 µM (inactive)
SF-268
  GI50: 20.7 µM (inactive)
MCF7
  GI50: 4.46 µM (inactive)
HCT-116
  GI50: 3.27 µM (inactive)
A498
  GI50: 19 µM (inactive)
A549
  GI50: 23.4 µM (inactive)
HCT-15
  GI50: 5.87 µM
Hs-578T
  GI50: 27.2 µM (inactive)
IGROV-1
  GI50: 10.5 µM (inactive)
SN12C
  GI50: 13.6 µM (inactive)
SF-539
  GI50: 12.2 µM (inactive)
NCI/ADR-RES
  GI50: 20 µM (inactive)
K562
  GI50: 2.65 µM (inactive)
PC-3
  GI50: 16.9 µM (inactive)
M14
  GI50: 3.9 µM (inactive)
SNB-75
  GI50: 12.3 µM (inactive)
EKVX
  GI50: 15.2 µM (inactive)
OVCAR-8
  GI50: 1.98 µM (inactive)
U-251
  GI50: 1.4 µM (inactive)
MDA-MB-435
  GI50: 5.75 µM (inactive)
Malme-3M
  GI50: 2.38 µM (inactive)
OVCAR-4
  GI50: 13.1 µM (inactive)
SR
  GI50: 9.73 µM (inactive)
SK-MEL-28
  GI50: 15 µM (inactive)
SNB-19
  GI50: > 51.4 µM (inactive)
UACC-62
  GI50: 17.7 µM (inactive)
NCI-H460
  GI50: 22.1 µM (inactive)
CAKI-1
  GI50: 4.12 µM (inactive)
SK-MEL-5
  GI50: 13 µM (inactive)
RXF 393
  GI50: 7.19 µM (inactive)
OVCAR-5
  GI50: 17.3 µM (inactive)
KM12
  GI50: 18.1 µM (inactive)
ACHN
  GI50: 6.21 µM (inactive)
SW-620
  GI50: 1.69 µM (inactive)
SK-MEL-2
  GI50: 16.9 µM (inactive)
786-0
  GI50: 4.84 µM (inactive)
NCI-H226
  GI50: 32.8 µM (inactive)
BT-549
  GI50: 12.1 µM (inactive)
HOP-92
  GI50: 4.93 µM (inactive)
SF-295
  GI50: 70.8 µM (inactive)
DU-145
  GI50: 20 µM (inactive)
COLO 205
  GI50: 2.2 µM (inactive)
HCC 2998
  GI50: 18.7 µM (inactive)
UO-31
  GI50: 11.6 µM (inactive)
T47D
  GI50: 3.97 µM (inactive)
OVCAR-3
  GI50: 5.7 µM (inactive)
SK-OV-3
  GI50: 56 µM (inactive)
RPMI-8226
  GI50: 1.61 µM (inactive)
